Laboratory results from patent US20230257715A1, “COMPOSITIONS AND METHODS FOR REGULATING ENTEROENDOCRINE CELL DIFFERENTIATION AND USES THEREOF” (The Children's Medical Center Corporation, priority 2020, published 2023).

What was measured:
Type in all cases: cell-based
human duodenal enteroids [1] = assay: qPCR analysis of enteroendocrine and lineage markers in enteroids; conditions: time-course of AS-treated enteroids, RNA every two days
human duodenal enteroids [2] = assay: Immunofluorescence staining of lineage markers CK20, MUC2, LYZ in enteroids
Description: Immunofluorescence staining was performed as previously described with minor modifications (Dekkers J F, Alieva M, Wellens L M, et al. Nat Protoc 2019; 14:1l756-1771)^32. Organoids were grown in and isolated from Matrigel® as noted above. 1-3 wells from a 24-well plate were washed in 200 μL of 1× phosphate-buffered saline (PBS) and moved in suspension to a 1.5 mL microcentrifuge tube. Each tube was centrifuged at 800×g for 5 minutes at 4° C. to pellet organoids. PBS was aspirated, and organoids were fixed in 200 μL of 4% paraformaldehyde (PFA) for 20 minutes on ice, shaking. Each tube was centrifuged again as above, and PFA was aspirated. The organoids were then resuspended in 500 μL of 0.3% Triton-X in PBS and moved to a 48-well plate for the remaining steps. The organoids were permeabilized for 30 minutes at room temperature, shaking. Between each step, organoids were allowed to settle to the bottom of each well, the plate was angled, and the solution aspirated by careful pipetting. Organoids were then blocked with 5% bovine serum albumin in PBS for 1.5 hours at room temperature, shaking. This was followed by three five-minute washes in 500 μL of PBS at room temperature, shaking.
Each well was then incubated in 200 μL of primary antibodies diluted in 5% BSA/0.1% Trition-X in PBS at 4° C. overnight. This was followed by five washes in 500 μL of 0.1% Triton-X in PBS for 15 minutes each at room temperature, shaking. 200 μL of secondary antibodies, including Alexa Fluor 488- or 647-conjugated anti-mouse (Invitrogen, A-21202, or A-31571, 1:400), Alexa Fluor 488-conjugated anti-rat (Invitrogen, A-21208, 1:400), Alexa Fluor 488-conjugated anti-goat (Invitrogen, A-11055, 1:400) or Alexa Fluor 647-conjugated anti-rabbit (Invitrogen, A-31573, 1:400), diluted in 0.1% Triton-X in PBS, which were then added to each well and incubated for two hours at room temperature, shaking. Organoids were then washed as above, then moved to new 1.5 mL centrifuge tubes. […]

human duodenal enteroids [3] = assay: Single cell RNA sequencing of enteroids (cell type proportions, module score, scVelo trajectory)
Description: To better assess the transcriptomic distinctions between cells from the various culture conditions, single cell RNA sequencing (scRNA-seq) on the 10× platform combined with sample hashing was utilized, allowing the assessment of the reproducibility of the findings from distinct donors. Enteroids from three individuals were grown in G2D12, RSP or AS, for a total of nine samples. After the 14-day protocol, enteroids were isolated and processed into a single-cell suspension and their condition and patient source were marked using Hashtag antibodies prior to pooling the samples together (Stoeckius, M. et al. Genome Biol 19, 224, doi:10.1186/s13059-018-1603-1 (2018).)^47. After labeling, cells were processed, and single-cell transcriptomes were generated.
Enteroids were incubated in Cell Recovery solution for 40-60 minutes at 4° C. to remove the Matrigel® and then centrifuged at 500×g for 5 minutes at 4° C. To achieve single cell suspension, organoids were then incubated in 500 μL of TrypLE™ Express at 37° C. for 30 minutes and broken up by repeated pipetting using a bent P1000 pipette tip. Each sample was then diluted in 800 μL of 20% FBS in Advanced DMEM/F12, filtered through 37 μm mesh, and then centrifuged at 300×g for 10 minutes at 4° C. Dead cells were then removed using magnetic-activated cell sorting (MACS) separation following the manufacturer's protocol. Briefly, each sample was resuspended in 100 μL Dead Cell Removal MicroBeads (Miltenyi Biotec) and incubated at room temperature for 15 minutes. 400 μL of 1×Binding Buffer was then added to each sample, after which the samples were applied to prepared MACS columns placed in a MACS Separator. Flow-through containing live cells was collected. This was followed by washing the columns four times with 1× Binding Buffer, which were combined with the initial flow-through. These samples were then centrifuged at 800×g for 5 minutes at 4° C.
Single cells isolated after dead cell removal (see, Example 18) were labeled prior to sequencing with Totalseq™-B hashtag antibodies (Biolegend), targeted against CD298 and β2-microglobulin, per the manufacturer's protocol^47. Briefly, each of the nine samples (three separate differentiation conditions in three enteroid lines) were resuspended in 50 μL of Cell Staining Buffer (Biolegend) and blocked with […] of Human TruStain FcX^TM blocking reagent (Biolegend) for 10 minutes at 4° C. The supernatant was then removed, and each sample resuspended in 50 μL of Cell Staining Buffer containing […] of a unique Totalseq™-B hashtag antibody. Samples were incubated for 30 minutes at 4° C. and then washed three times in 3.5 mL of Cell Staining Buffer. The samples were then filtered through a 37 μm mesh, resuspended in 2% BSA in PBS at a concentration of 1500 cells/μL, and then pooled together. Of note, prior to the scRNA-seq experiment, antibody binding was verified using fluorophore-conjugated antibodies with the same binding specificity.
A total of 180,000 cells as one pool were inputted across four channels, with a recovery rate of approximately 30,000 cells across all four channels. RNA libraries were prepared from single cells by the Single Cell Core at Harvard Medical School, Boston, Mass., using the 10× Chromium Single Cell 3′ Library Chip (V3.1) with dual indexed barcodes. Briefly, single cells were partitioned into Gel Beads in Emulsion (GEMs) by the Chromium Controller. […]

[4] = three enteroid lines, 14-day protocol

CCn1cc(C(=O)O)c(=O)c2c(N)c(F)c(NC3CCCCC3)cc21 [AS, AS1842856]
CHGA and SST transcript levels over time (human duodenal enteroids [1]): detectable transcript levels by the sixth day of differentiation
NEUROD1 and NEUROG3 expression over time (human duodenal enteroids [1]): showed increased expression around the fourth day of differentiation
lysozyme (LYZ) immunofluorescence staining (human duodenal enteroids [2]): expressed
mucin 2 (MUC2) immunofluorescence staining (human duodenal enteroids [2]): lesser degree
cytokeratin 20 (CK20) immunofluorescence staining (human duodenal enteroids [2]; enterocyte marker): lesser degrees
EE Cell Gene Module Score, effect size between culture conditions (Cohen's d) (human duodenal enteroids [3]; reference gene set from mouse EE cells): larger effect size than RSP
proportion of EE cells (scRNA-seq) (human duodenal enteroids [3]; [4]): 18%
proportion of enterocytes (scRNA-seq) (human duodenal enteroids [3]; [4]): 2.5%
proportion of goblet cells (scRNA-seq) (human duodenal enteroids [3]; [4]): 1.5%
proportion of stem cells (scRNA-seq) (human duodenal enteroids [3]; [4]): 42%
differentiation trajectory (scVelo RNA velocity) (human duodenal enteroids [3]; vector field on UMAP): the majority of vectors moving towards the goblet cell cluster and then into the EE cluster
